In patent US20090170872A1, “Compounds and Their Pharmaceutical Use” (Orchid Research Laboratories Limited, priority 2005, published 2009):

Tests used:
IL-6 = IL-6 production in LPS-stimulated human whole blood (ELISA); format: cell-based; conditions: LPS 4 hours, read-out: % IL-6 Inhibitory Activity (hPBMC)
Description: This assay determines the effect of test compounds on the production of IL-6 from human whole blood. Compounds are tested for their ability to downregulate the production of IL-6 in activated whole blood. The test compounds are pre-incubated for 15 minutes at 37° C. and then stimulated with Lipopolysaccharide (Salmonella abortus equi, 1 µg/ml) for 4 hours at 37° C. in 5% CO2. The levels of IL-6 are estimated using Enzyme linked Immunosorbent assay performed in a 96 well format as per the procedure of the manufacturer. (Cayman Chemical, Ann Arbor, USA).

TNF-α = TNF-α production in LPS-stimulated human whole blood (ELISA); format: cell-based; conditions: LPS 4 hours, read-out: % TNF-α Inhibitory Activity in (hPBMC)
Description: This assay determines the effect of the test compounds on the production of TNF-α in human whole blood. TNF-α assay is carried out as described by Armin Hatzelmann and Christian Schudt (J Pharm Exp Ther 297, 261, 2001). Compounds are tested for their ability to inhibit the activity of TNF-α in human whole blood. The test compounds are pre-incubated for 15 minutes at 37° C. and then stimulated with Lipopolysaccharide (Salmonella abortus equi, 1 µg/ml) for 4 hours at 37° C. in 5% CO2. The levels of TNF-α are estimated using Enzyme linked Immunosorbent assay performed in a 96 well format as per the procedure of the manufacturer (Cayman Chemical, Ann Arbor, USA).

SMILES | melting point | inhibition at 1 µM (IL-6) | inhibition at 10 µM (IL-6) | inhibition at 1 µM (TNF-α) | inhibition at 10 µM (TNF-α)
Cc1nccn1CC1CCc2c(c3ccccc3n2C)/C1=N/O (stereo not shown) [Example 1, (4E)-9-methyl-3-[(2-methyl-1H-imidazol-1-yl)methyl]-1,2,3,9-tetrahydro-4H-carbazol-4-one oxime] | 231 to 233 °C | – | – | – | –
Cc1nccn1CC1CCc2c(c3ccccc3n2C)/C1=N/OCc1ccccc1 (stereo not shown) [Example 2, (4E)-9-methyl-3-[(2-methyl-1H-imidazol-1-yl)methyl]-1,2,3,9-tetrahydro-4H-carbazol-4-one O-benzyloxime] | – | 17.2% | 52.7% | 6.87% | 54.3%
CCO/N=C1/c2c(n(C)c3ccccc23)CCC1Cn1ccnc1C (stereo not shown) [Example 3, (4E)-9-methyl-3-[(2-methyl-1H-imidazol-1-yl)methyl]-1,2,3,9-tetrahydro-4H-carbazol-4-one O-ethyloxime] | – | 13.1% | 17.7% | 3.42% | 26.9%
Cc1nccn1CC1CCc2c(c3ccccc3n2C)/C1=N/OCC(F)(F)F (stereo not shown) [Example 4, (4E)-9-methyl-3-[(2-methyl-1H-imidazol-1-yl)methyl]-1,2,3,9-tetrahydro-4H-carbazol-4-one O-2,2,2-trifluoroethyloxime] | – | – | – | 19.8% | 26.1%
COc1ccc(CO/N=C2/c3c(n(C)c4ccccc34)CCC2Cn2ccnc2C)cc1 (stereo not shown) [Example 5, (4E)-9-methyl-3-[(2-methyl-1H-imidazol-1-yl)methyl]-1,2,3,9-tetrahydro-4H-carbazol-4-one O-(4-methoxybenzyl)oxime] | – | – | – | 18.4% | 52.4%
Cc1nccn1CC1CCc2c(c3ccccc3n2C)/C1=N/OCc1cccnc1 (stereo not shown) [Example 10, (4E)-9-methyl-3-[(2-methyl-1H-imidazol-1-yl)methyl]-1,2,3,9-tetrahydro-4H-carbazol-4-one O-(pyidin-3-ylmethyl)oxime] | – | – | – | 19.9% | 50.5%
Cc1nccn1CC1CCc2c(c3ccccc3n2C)/C1=N/OCc1ccncc1 (stereo not shown) [Example 11, (4E)-9-methyl-3-[(2-methyl-1H-imidazol-1-yl)methyl]-1,2,3,9-tetrahydro-4H-carbazol-4-one O-(pyridin-4-ylmethyl)oxime] | – | – | – | 11.7% | 47.5%
Cc1nccn1CC1CCc2c(c3ccccc3n2C)/C1=N/OCc1ccc([N+](=O)[O-])cc1 (stereo not shown) [Example 15, (4E)-9-methyl-3-[(2-methyl-1H-imidazol-1-yl)methyl]-1,2,3,9-tetrahydro-4H-carbazol-4-one O-(4-nitrobenzyl)oxime] | – | – | – | 48.1% | 41.2%
Cc1nccn1CC1CCc2c(c3ccccc3n2C)/C1=N/Oc1ccc(C(F)(F)F)c(Cl)n1 (stereo not shown) [Example 22, (4E)-9-methyl-3-[(2-methyl-1H-imidazol-1-yl)methyl]-1,2,3,9-tetrahydro-4H-carbazol-4-one O-(-chloro-5-trifluoromethyl-pyridin-2-yl)oxime] | – | – | – | 53.1% | 48%
CC(=O)O/N=C1/c2c(n(C)c3ccccc23)CCC1Cn1ccnc1C (stereo not shown) [Example 25, (4E)-9-methyl-3-[(2-methyl-1H-imidazol-1-yl)methyl]-1,2,3,9-tetrahydro-4H-carbazol-4-one O-acetyloxime] | – | 22.4% | 12.5% | – | –
Cc1nccn1CC1CCc2c(c3ccccc3n2C)/C1=N/OC(=O)C(F)(F)F (stereo not shown) [Example 26, (4E)-9-methyl-3-[(2-methyl-1H-imidazol-1-yl)methyl]-1,2,3,9-tetrahydro-4H-carbazol-4-one O-trifluoroacetyloxime] | 148 to 150 °C | – | – | 20.8% | 2.67%
Cc1nccn1CC1CCc2c(c3ccccc3n2C)/C1=N/OC(=O)c1ccnc(Cl)c1 (stereo not shown) [Example 27, (4E)-9-methyl-3-[(2-methyl-1H-imidazol-1-yl)methyl]-1,2,3,9-tetrahydro-4H-carbazol-4-one O-2-chloropyridinoyloxime] | 172 to 174 °C | – | – | 3.51% | 9.77%
Cc1nccn1CC1CCc2c(c3ccccc3n2C)/C1=N/OC(=O)c1ccccc1 (stereo not shown) [Example 30, (4E)-9-methyl-3-[(2-methyl-1H-imidazol-1-yl)methyl]-1,2,3,9-tetrahydro-4H-carbazol-4-one O-benzoyloxime] | 179 to 185 °C | – | – | – | –
Cc1nccn1CC1CCc2c(c3ccccc3n2C)/C1=N/OC(=O)c1ccc(Cl)cc1 (stereo not shown) [Example 31, (4E)-9-methyl-3-[(2-methyl-1H-imidazol-1-yl)methyl]-1,2,3,9-tetrahydro-4H-carbazol-4-one O-4-chloro-benzoyloxime] | 206 to 212 °C | – | – | 10.8% | 28.5%
Cc1nccn1CC1CCc2c(c3ccccc3n2C)/C1=N/OC(=O)c1ccccc1F (stereo not shown) [Example 33, (4E)-9-methyl-3-[(2-methyl-1H-imidazol-1-yl)methyl]-1,2,3,9-tetrahydro-4H-carbazol-4-one O-2-fluorobenzoyloxime] | 172 to 175 °C | – | – | – | –
Cc1nccn1CC1CCc2c(c3ccccc3n2C)/C1=N/OC(=O)c1ccc(C(F)(F)F)cc1 (stereo not shown) [Example 34] | 200 to 203 °C | – | – | – | –
COc1ccc(C(=O)O/N=C2/c3c(n(C)c4ccccc34)CCC2Cn2ccnc2C)cc1 (stereo not shown) [Example 35, (4E)-9-methyl-3-[(2-methyl-1H-imidazol-1-yl)methyl]-1,2,3,9-tetrahydro-4H-carbazol-4-one O-4-methoxybenzoyloxime] | 200 to 203 °C | – | – | – | –
Cc1ccc(C(=O)O/N=C2/c3c(n(C)c4ccccc34)CCC2Cn2ccnc2C)cc1 (stereo not shown) [Example 36, (4E)-9-methyl-3-[(2-methyl-1H-imidazol-1-yl)methyl]-1,2,3,9-tetrahydro-4H-carbazol-4-one O-4-methylbenzoyloxime] | 207 to 212 °C | – | – | 8.81% | 18.8%
Cc1nccn1CC1CCc2c(c3ccccc3n2C)/C1=N/OC(=O)c1ccc(Br)o1 (stereo not shown) [Example 45, (4E)-9-methyl-3-[(2-methyl-1H-imidazol-1-yl)methyl]-1,2,3,9-tetrahydro-4H-carbazol-4-one O-5-bromo-2-furanoyloxime] | – | – | – | 12.3% | 32.1%

Now from value to compound, other results behind:

melting point | SMILES | inhibition at 1 µM (IL-6) | inhibition at 10 µM (IL-6) | inhibition at 1 µM (TNF-α) | inhibition at 10 µM (TNF-α)
192 to 200 °C | Cc1nccn1CC1CCc2c(c3ccccc3n2C)/C1=N/OC(=O)c1ccc(F)cc1 (stereo not shown) [Example 38, (4E)-9-methyl-3-[(2-methyl-1H-imidazol-1-yl)methyl]-1,2,3,9-tetrahydro-4H-carbazol-4-one O-4-fluorobenzoyloxime] | 19.1% | 26% | – | –
186 to 190 °C | Cc1nccn1CC1CCc2c(c3ccccc3n2C)/C1=N/OC(=O)c1ccc([N+](=O)[O-])o1 (stereo not shown) [Example 47, (4E)-9-methyl-3-[(2-methyl-1H-imidazol-1-yl)methyl]-1,2,3,9-tetrahydro-4H-carbazol-4-one O-5-nitro-2-furanoyloxime] | – | – | 18% | 26.5%
165 to 170 °C | Cc1ccoc1C(=O)O/N=C1/c2c(n(C)c3ccccc23)CCC1Cn1ccnc1C (stereo not shown) [Example 48, (4E)-9-methyl-3-[(2-methyl-1H-imidazol-1-yl)methyl]-1,2,3,9-tetrahydro-4H-carbazol-4-one O-3-methyl-2-furanoyloxime] | – | – | 20.7% | 22.6%
177 to 180 °C | Cc1ccsc1C(=O)O/N=C1/c2c(n(C)c3ccccc23)CCC1Cn1ccnc1C (stereo not shown) [Example 49, (4E)-9-methyl-3-[(2-methyl-1H-imidazol-1-yl)methyl]-1,2,3,9-tetrahydro-4H-carbazol-4-one O-3-methyl-2-thiophenoyloxime] | – | – | – | –
154 to 157 °C | Cc1cc(C(=O)O/N=C2/c3c(n(C)c4ccccc34)CCC2Cn2ccnc2C)no1 (stereo not shown) [Example 50, (4E)-9-methyl-3-[(2-methyl-1H-imidazol-1-yl)methyl]-1,2,3,9-tetrahydro-4H-carbazol-4-one O-5-methyl-3-isoxazoloyloxime] | – | – | – | –
171 to 175 °C | Cc1nccn1CC1CCc2c(c3ccccc3n2C)/C1=N/OC(=O)c1ccsc1 (stereo not shown) [Example 53] | – | – | – | –
140 to 144 °C | Cc1nccn1CC1CCc2c(c3ccccc3n2C)/C1=N/OC(=O)c1ccc(Cl)s1 (stereo not shown) [Example 56, (4E)-9-methyl-3-[(2-methyl-1H-imidazol-1-yl)methyl]-1,2,3,9-tetrahydro-4H-carbazol-4-one O-5-chloro-2-thiophenoyloxime] | – | – | 26.5% | 54.3%
158 to 164 °C | Cc1nccn1CC1CCc2c(c3ccccc3n2C)/C1=N/OC(=O)c1ccoc1 (stereo not shown) [Example 63, (4E)-9-methyl-3-[(2-methyl-1H-imidazol-1-yl)methyl]-1,2,3,9-tetrahydro-4H-carbazol-4-one [(furan-3-yl)carbonyl]oxime] | – | – | – | –
140 to 144 °C | Cc1nccn1CC1CCc2c(c3ccccc3n2C)C1NO (stereo not shown) [Example 64, 4-(hydroxyamino)-9-methyl-3-[(2-methyl-1H-imidazol-1-yl)methyl]-2,3,4,9-tetrahydro-1H-carbazole] | – | – | – | –
